Laboratory results from patent US8673950B2, “Dihydrooxazol-2-amine derivatives” (Hoffmann-LaRoche Inc., priority 2010, dated 2014).

Tests used:
[1] = molecular target: rat TAAR1 (Rattus norvegicus (Rat), UniProt Q923Y9); experiment: Radioligand binding assay on rat TAAR1; conditions: rat TAAR1, membranes of stably transfected HEK-293 cells; second value of cell mouse/rat
Procedure: (§1) Construction of TAAR Expression Plasmids and Stably Transfected Cell Lines
(§2) For the construction of expression plasmids the coding sequences of human, rat and mouse TAAR 1 were amplified from genomic DNA essentially as described by Lindemann et al.. The Expand High Fidelity PCR System (Roche Diagnostics) was used with 1.5 mM Mg^2+ and purified PCR products were cloned into pCR2.1-TOPO cloning vector (Invitrogen) following the instructions of the manufacturer. PCR products were subcloned into the pIRESneo2 vector (BD Clontech, Palo Alto, Calif.), and expression vectors were sequence verified before introduction in cell lines.
(§3) HEK293 cells (ATCC # CRL-1573) were cultured essentially as described by Lindemann et al. (2005). For the generation of stably transfected cell lines HEK293 cells were transfected with the pIRESneo2 expression plasmids containing the TAAR coding sequences (described above) with Lipofectamine 2000 (Invitrogen) according to the instructions of the manufacturer, and 24 hrs post transfection the culture medium was supplemented with 1 mg/ml G418 (Sigma, Buchs, Switzerland). After a culture period of about 10 d clones were isolated, expanded and tested for responsiveness to trace amines (all compounds purchased from Sigma) with the cAMP Biotrak Enzyme immunoassay (EIA) System (Amersham) following the non-acetylation EIA procedure provided by the manufacturer.
Radioligand Binding Assay on Rat TAAR1
(§4) Membrane Preparation and Radioligand Binding.
HEK-293 cells stably expressing rat TAAR1 were maintained at 37° C. and 5% CO2 in DMEM high glucose medium, containing fetal calf serum (10%, heat inactivated for 30 min at 56° C.), penicillin/streptomycin (1%), and 375 μg/ml geneticin (Gibco). Cells were released from culture flasks using trypsin/EDTA, harvested, washed twice with ice-cold PBS (without Ca^2+ and Mg^2+), pelleted at 1'000 rpm for 5 min at 4° C., frozen and stored at −80° C. Frozen pellets were suspended in 20 ml HEPES-NaOH (20 mM, pH 7.4) containing 10 mM EDTA and homogenized with a Polytron (PT 6000, Kinematica) at 14'000 rpm for 20 s. The homogenate was centrifuged at 48'000×g for 30 min at 4° C. Subsequently, the supernatant was removed and discarded, and the pellet resuspended in 20 ml HEPES-NaOH (20 mM, pH 7.4) containing 0.1 mM EDTA using the Polytron (20 s at 14'000 rpm). This procedure was repeated and the final pellet resuspended in HEPES-NaOH containing 0.1 mM EDTA and homogenized using the Polytron. Typically, aliquots of 2 ml membrane portions were stored at −80° C. With each new membrane batch the dissociation constant (Kd) was determined via a saturation curve. […] Nonspecific binding was defined as the amount of ^3[H]-(S)-4-[(ethyl-phenyl-amino)-methyl]-4,5-dihydro-oxazol-2-ylamine bound in the presence of 10 μM unlabeled ligand. All compounds were tested at a broad range of concentrations (10 pM to 10 μM) in duplicates. […] The 96 deep well plates were incubated for 1 hr at 4° C. Incubations were terminated by rapid filtration through Unifilter-96 plates (Packard Instrument Company) and glass filters GF/C (Perkin Elmer) presoaked for 1 hr in polyethylenimine (0.3%) and washed 3 times with 1 ml of cold binding buffer. After addition of 45 μl of Microscint 40 (PerkinElmer) the Unifilter-96 plate was sealed and after 1 hr the radioactivity counted using a TopCount Microplate Scintillation Counter (Packard Instrument Company).

[2] = molecular target: mouse TAAR1 (Mus musculus (Mouse), UniProt Q923Y8); experiment: Radioligand binding assay on mouse TAAR1; conditions: mouse TAAR1, membranes of stably transfected HEK-293 cells; first value of cell mouse/rat
Chain of mouse TAAR1 (Q923Y8 whole entry): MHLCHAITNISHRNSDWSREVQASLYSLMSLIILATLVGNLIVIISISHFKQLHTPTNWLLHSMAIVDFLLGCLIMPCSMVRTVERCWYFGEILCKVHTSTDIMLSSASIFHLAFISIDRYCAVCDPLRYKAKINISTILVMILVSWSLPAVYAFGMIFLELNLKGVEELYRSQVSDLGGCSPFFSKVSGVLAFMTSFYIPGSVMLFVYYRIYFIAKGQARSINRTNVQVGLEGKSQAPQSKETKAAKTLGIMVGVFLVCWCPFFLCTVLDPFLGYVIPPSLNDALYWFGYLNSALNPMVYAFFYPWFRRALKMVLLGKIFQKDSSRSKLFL
Procedure: as §1, §2, §3
Radioligand Binding Assay on Mouse TAAR1
as §4
HEK-293 cells stably expressing mouse TAAR1 were maintained at 37° C. and 5% CO2 in DMEM high glucose medium, containing fetal calf serum (10%, heat inactivated for 30 min at 56° C.), penicillin/streptomycin (1%), and 375 μg/ml geneticin (Gibco). Cells were released from culture flasks using trypsin/EDTA, harvested, washed twice with ice-cold PBS (without Ca^2+ and Mg^2+), pelleted at 1'000 rpm for 5 min at 4° C., frozen and stored at −80° C. Frozen pellets were suspended in 20 ml HEPES-NaOH (20 mM, pH 7.4) containing 10 mM EDTA and homogenized with a Polytron (PT 6000, Kinematica) at 14'000 rpm for 20 s. The homogenate was centrifuged at 48'000×g for 30 min at 4° C. Subsequently, the supernatant was removed and discarded, and the pellet resuspended in 20 ml HEPES-NaOH (20 mM, pH 7.4) containing 0.1 mM EDTA using the Polytron (20 s at 14'000 rpm). This procedure was repeated and the final pellet resuspended in HEPES-NaOH containing 0.1 mM EDTA and homogenized using the Polytron. Typically, aliquots of 2 ml membrane portions were stored at −80° C. With each new membrane batch the dissociation constant (Kd) was determined via a saturation curve. The TAAR1 radioligand ^3[H]-(S)-4-[(ethyl-phenyl-amino)-methyl]-4,5-dihydro-oxazol-2-ylamine (described in WO 2008/098857) was used at a concentration equal to the calculated Kd value, that was usually around 0.7 nM, resulting in the binding of approximately 0.5% of the radioligand and a specific binding representing approximately 70% of the total binding. Nonspecific binding was defined as the amount of ^3[H]-(S)-4-[(ethyl-phenyl-amino)-methyl]-4,5-dihydro-oxazol-2-ylamine bound in the presence of 10 μM unlabeled ligand. All compounds were tested at a broad range of concentrations ([…]) in duplicates. […] The 96 deep well plates were incubated for 1 hr at 4° C. Incubations were terminated by rapid filtration through Unifilter-96 plates (Packard Instrument Company) and glass filters GF/C (Perkin Elmer) presoaked for 1 hr in polyethylenimine (0.3%) and washed 3 times with 1 ml of cold binding buffer. After addition of 45 μl of Microscint 40 (PerkinElmer) the Unifilter-96 plate was sealed and after 1 hr the radioactivity counted using a TopCount Microplate Scintillation Counter (Packard Instrument Company).

Chain of rat TAAR1 (Q923Y9 whole entry): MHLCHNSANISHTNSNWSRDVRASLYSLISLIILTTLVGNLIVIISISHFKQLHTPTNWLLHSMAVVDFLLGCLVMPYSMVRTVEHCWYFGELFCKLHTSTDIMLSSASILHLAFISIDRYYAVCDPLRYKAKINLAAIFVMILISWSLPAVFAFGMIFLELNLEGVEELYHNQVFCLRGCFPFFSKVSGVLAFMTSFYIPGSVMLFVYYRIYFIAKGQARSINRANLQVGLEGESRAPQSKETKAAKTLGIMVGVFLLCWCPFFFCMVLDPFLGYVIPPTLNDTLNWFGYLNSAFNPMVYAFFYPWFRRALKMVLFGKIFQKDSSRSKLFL

NC1=N[C@@H](CCc2ccc(Nc3cc(C(F)(F)F)ccn3)cc2)CO1 [Example 23, {4-[2-((S)-2-Amino-4,5-dihydro-oxazol-4-yl)-ethyl]-phenyl}-(4-trifluoromethyl-pyridin-2-yl)-amine]
Ki [1]: 0.0002 µM
Ki [2]: 0.0003 µM

NC1=N[C@@H](CCc2ccc(Nc3ncc(Br)cn3)cc2)CO1 [Example 51, {4-[2-((S)-2-Amino-4,5-dihydro-oxazol-4-yl)-ethyl]-phenyl}-(5-bromo-pyrimidin-2-yl)-amine]
Ki [1]: 0.0004 µM
Ki [2]: 0.0006 µM

N#Cc1cnc(Nc2ccc(CC[C@H]3COC(N)=N3)cc2)cn1 [Example 39, 5-{4-[2-((8)-2-Amino-4,5-dihydro-oxazol-4-yl)-ethyl]-phenylamino}-pyrazine-2-carbonitrile]
Ki [1]: 0.0043 µM
Ki [2]: 0.0128 µM

NC1=N[C@@H](CCc2ccc(Nc3ccccc3)cc2)CO1 [Example 13, (S)-4-[2-(4-Phenylamino-phenyl)-ethyl]-4,5-dihydro-oxazol-2-ylamine]
Ki [1]: 0.0001 µM
Ki [2]: 0.0013 µM

Cc1nccc(Nc2ccc(CC[C@H]3COC(N)=N3)cc2)n1 [Example 34, {4-[2-((S)-2-Amino-4,5-dihydro-oxazol-4-yl)-ethyl]-phenyl}-(2-methyl-pyrimidin-4-yl)-amine]
Ki [1]: 0.0026 µM
Ki [2]: 0.0387 µM

Cc1ccc(Nc2ccc(CC[C@H]3COC(N)=N3)cc2)cc1 [Example 14, (S)-4-(4-(p-Tolylamino)phenethyl)-4,5-dihydrooxazol-2-amine]
Ki [1]: 0.0001 µM
Ki [2]: 0.0008 µM

Cc1ccc(Nc2ccc(CC[C@H]3COC(N)=N3)cc2)nc1 [Example 29, {4-[2-((8)-2-Amino-4,5-dihydro-oxazol-4-yl)-ethyl]-phenyl}-(5-methyl-pyridin-2-yl)-amine]
Ki [1]: 0.0035 µM
Ki [2]: 0.0306 µM

Cc1cc(Nc2ccc(CC[C@H]3COC(N)=N3)cc2)ccc1OC(F)(F)F [Example 10, (S)-4-(4-(3-Methyl-4-(trifluoromethoxy)phenylamino)phenethyl)-4,5-dihydrooxazol-2-amine]
Ki [1]: 0.0001 µM
Ki [2]: 0.0001 µM

NC1=N[C@@H](CCc2ccc(Nc3cc(F)ccn3)cc2)CO1 [Example 22, {4-[2-((S)-2-Amino-4,5-dihydro-oxazol-4-yl)-ethyl]-phenyl}-(4-fluoro-pyridin-2-yl)-amine]
Ki [1]: 0.0002 µM
Ki [2]: 0.0034 µM

C[C@@H]1OC(N)=N[C@H]1CCc1ccc(Nc2ncc(Cl)cn2)cc1 [Example 52, {4-[2-((4S,5S)-2-Amino-5-methyl-4,5-dihydro-oxazol-4-yl)-ethyl]-phenyl}-(5-chloro-pyrimidin-2-yl)-amine]
Ki [1]: 0.0006 µM
Ki [2]: 0.0046 µM

NC1=N[C@@H](CCc2ccc(Nc3ccc(C(F)(F)F)cc3)cc2)CO1 [Example 8, (S)-4-{2-[4-(4-Trifluoromethyl-phenylamino)-phenyl]-ethyl}-4,5-dihydro-oxazol-2-ylamine]
Ki [1]: 0.0002 µM
Ki [2]: 0.0002 µM

NC1=N[C@@H](CCc2ccc(Nc3ccc(Cl)cc3)cc2)CO1 [Example 6, (S)-4-{2-[4-(4-Chloro-phenylamino)-phenyl]-ethyl}-4,5-dihydro-oxazol-2-ylamine]
Ki [1]: 0.0001 µM
Ki [2]: 0.0002 µM

NC1=N[C@@H](CCc2ccc(Nc3ncc(Cl)cn3)nc2)CO1 [Example 71, {5-[2-((S)-2-Amino-4,5-dihydro-oxazol-4-yl)-ethyl]-pyridin-2-yl}-(5-chloro-pyrimidin-2-yl)-amine]
Ki [1]: 0.0011 µM
Ki [2]: 0.0137 µM

CCc1cnc(Nc2ccc(CC[C@H]3COC(N)=N3)cc2)nc1 [Example 37, {4-[2-((S)-2-Amino-4,5-dihydro-oxazol-4-yl)-ethyl]-phenyl}-(5-ethyl-pyrimidin-2-yl)-amine]
Ki [1]: 0.0012 µM
Ki [2]: 0.0013 µM

CC(=O)c1cnc(Nc2ccc(CC[C@H]3COC(N)=N3)cc2)nc1 [Example 47, 1-(2-{4-[2-((S)-2-Amino-4,5-dihydro-oxazol-4-yl)-ethyl]phenylamino}-pyrimidin-5-yl)-ethanone]
Ki [1]: 0.0024 µM
Ki [2]: 0.0192 µM

NC1=N[C@@H](CCc2ccc(Nc3ccc(Cl)cn3)cc2)CO1 [Example 15, {4-[2-((S)-2-Amino-4,5-dihydro-oxazol-4-yl)-ethyl]-phenyl}-(5-chloro-pyridin-2-yl)-amine]
Ki [1]: 0.0001 µM
Ki [2]: 0.0005 µM

COc1cccc(C(Nc2ccc(CC[C@H]3COC(N)=N3)cc2)C(F)(F)F)n1 (stereo partly drawn) [Example 70, (4S)-4-(4-(2,2,2-Trifluoro-1-(6-methoxypyridin-2-yl)ethylamino)phenethyl)-4,5-dihydrooxazol-2-amine]
Ki [1]: 0.0205 µM
Ki [2]: 0.134 µM

NC1=N[C@@H](CCc2ccc(Nc3ncc(Cl)cn3)cc2)CO1 [Example 18, {4-[2-((S)-2-Amino-4,5-dihydro-oxazol-4-yl)-ethyl]-phenyl}-(5-chloro-pyrimidin-2-yl)-amine]
Ki [1]: 0.0002 µM
Ki [2]: 0.0012 µM

COc1nc(Cl)cc(Nc2ccc(CC[C@H]3COC(N)=N3)cc2)n1 [Example 44, {4-[2-((S)-2-Amino-4,5-dihydro-oxazol-4-yl)-ethyl]-phenyl}-(6-chloro-2-methoxy-pyrimidin-4-yl)-amine]
Ki [1]: 0.0011 µM
Ki [2]: 0.001 µM

N#Cc1cncc(Nc2ccc(CC[C@H]3COC(N)=N3)cc2)n1 [Example 31, 6-{4-[2-((S)-2-Amino-4,5-dihydro-oxazol-4-yl)-ethyl]-phenylamino}-pyrazine-2-carbonitrile]
Ki [1]: 0.0059 µM
Ki [2]: 0.0133 µM

COc1ccc(Nc2ccc(CC[C@H]3COC(N)=N3)cc2)nc1 [Example 30, {4-[2-((S)-2-Amino-4,5-dihydro-oxazol-4-yl)-ethyl]-phenyl}-(5-methoxy-pyridin-2-yl)-amine]
Ki [1]: 0.0083 µM
Ki [2]: 0.134 µM

NC1=N[C@@H](CCc2ccc(NC(c3ccc(Br)cn3)C(F)(F)F)cc2)CO1 (stereo partly drawn) [Example 62, (S)-4-(2-{4-[1-(5-Bromo-pyridin-2-yl)-2,2,2-trifluoro-ethylamino]-phenyl}-ethyl)-4,5-dihydro-oxazol-2-ylamine]
Ki [1]: 0.0132 µM
Ki [2]: 0.0623 µM

CC(C)(C)c1cnc(Nc2ccc(CC[C@H]3COC(N)=N3)cc2)nc1 [Example 57, (S)-4-(4-(5-tert-Butylpyrimidin-2-ylamino)phenethyl)-4,5-dihydrooxazol-2-amine]
Ki [1]: 0.0004 µM
Ki [2]: 0.0005 µM
